Values of other authors, collected in US8163312B2, “Herbal formulation for prevention and treatment of diabetes and associated complications” (Innoveda Biological Solutions (P) Ltd., priority 2008, dated 2012).

Experiments:
PPAR-alpha = molecular target: T1, PPAR-alpha (Homo sapiens, UniProt Q07869); details: selective PPAR-alpha antagonist added
T1 construct: host or cells: human embryonic kidney 293 cells
T1 sequence (Q07869 1-468): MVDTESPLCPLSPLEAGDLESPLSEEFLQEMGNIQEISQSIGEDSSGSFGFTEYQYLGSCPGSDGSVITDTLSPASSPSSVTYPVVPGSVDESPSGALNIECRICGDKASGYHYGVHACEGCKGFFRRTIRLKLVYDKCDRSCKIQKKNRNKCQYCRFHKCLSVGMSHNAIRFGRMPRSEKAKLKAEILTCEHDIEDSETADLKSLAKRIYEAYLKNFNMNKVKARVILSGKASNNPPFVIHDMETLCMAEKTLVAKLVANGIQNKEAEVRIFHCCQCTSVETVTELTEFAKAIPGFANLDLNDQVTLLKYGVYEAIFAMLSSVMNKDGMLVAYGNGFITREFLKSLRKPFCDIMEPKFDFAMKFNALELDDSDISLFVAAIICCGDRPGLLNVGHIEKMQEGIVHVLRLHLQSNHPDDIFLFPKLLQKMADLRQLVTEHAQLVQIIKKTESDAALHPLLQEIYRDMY

mice = details: sanjoinine-A given as one unit
[1] = test system: alloxan induced diabetic rats

Row | Molecule | relative sedative potency (mice) | also measured
1 | CC(C)c1ccc2c(c1)c(SC(C)(C)C)c(CC(C)(C)C(=O)O)n2Cc1ccc(Cl)cc1 [MK-886] | – | effects of SO extract and mangiferin on PPAR-alpha luciferase and lipoprotein lipase (PPAR-alpha): completely suppressed
2 | CN(C)CCCN1c2ccccc2Sc2ccc(Cl)cc21 [chlorpromazine] | 5 | –
3 | COc1cc(/C=C/C(=O)CC(=O)/C=C/c2ccc(O)c(OC)c2)ccc1O [curcumin] | – | activity of SDH (sorbitol dehydrogenase) [1]: lowered significantly; blood sugar, Hb and glycosylated hemoglobin levels [1]: reduced; oxidative stress (levels of TBRAS) [1]: reduced the oxidative stress
4 | COc1cc2ccnc3c2c(c1OC)-c1ccccc1C3=O [lysicamine] | 6.5 | –
5 | CC(C)C[C@@H]1NC(=O)[C@@H](NC(=O)[C@H](Cc2ccccc2)N(C)C)[C@H](C(C)C)Oc2ccc(cc2)/C=C\NC1=O [sanjoinine-A] | one | –
6 | sanjoinine-Ahl | 3 | –
